Here are results for 21 compounds from patent publication US20250163038A1, “CBL-B MODULATORS AND USES THEREOF” (Nimbus Clio, Inc., priority 2021, published 2025).

The test system of assay [1] is Jurkat (clone E6-1) cells with NFAT luciferase reporter. The experiment in a line: Jurkat reporter assay (NFAT Luciferase). The conditions noted are these: Homo sapiens; Jurkat NFAT luciferase reporter cells, anti-CD3 stimulation, 6 hr; read-out: Jurkat NFAT EC50. The assay is classed as cell-based. On the technique in general: In a reporter assay the amount or activity of a reporter protein is the signal.

The target in assay [2] is Recombinant human Cbl-b (aa 36-427) (Homo sapiens, UniProt Q13191). As to the kind of experiment: Cbl-b Biochemical Assay (TR-FRET). Conditions: read-out: TR-FRET hCbl-b IC50. A general note: Time-resolved FRET reads energy transfer from a long-lived donor to a nearby acceptor.
Sequence of Recombinant human Cbl-b (aa 36-427) (Q13191 36-427): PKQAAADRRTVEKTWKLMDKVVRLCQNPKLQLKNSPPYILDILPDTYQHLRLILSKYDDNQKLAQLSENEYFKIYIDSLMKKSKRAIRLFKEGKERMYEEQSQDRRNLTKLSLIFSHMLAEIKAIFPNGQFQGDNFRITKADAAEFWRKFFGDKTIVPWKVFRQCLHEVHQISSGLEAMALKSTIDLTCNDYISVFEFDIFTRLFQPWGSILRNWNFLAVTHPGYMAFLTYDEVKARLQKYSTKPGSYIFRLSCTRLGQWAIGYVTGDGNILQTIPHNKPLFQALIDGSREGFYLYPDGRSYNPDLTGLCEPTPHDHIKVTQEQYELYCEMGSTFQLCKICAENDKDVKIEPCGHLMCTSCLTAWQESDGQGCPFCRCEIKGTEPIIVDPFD
Assay [3] has as its target T1, Recombinant human c-Cbl (aa 47-435) (Homo sapiens, UniProt P22681).
T1 sequence (P22681 47-435): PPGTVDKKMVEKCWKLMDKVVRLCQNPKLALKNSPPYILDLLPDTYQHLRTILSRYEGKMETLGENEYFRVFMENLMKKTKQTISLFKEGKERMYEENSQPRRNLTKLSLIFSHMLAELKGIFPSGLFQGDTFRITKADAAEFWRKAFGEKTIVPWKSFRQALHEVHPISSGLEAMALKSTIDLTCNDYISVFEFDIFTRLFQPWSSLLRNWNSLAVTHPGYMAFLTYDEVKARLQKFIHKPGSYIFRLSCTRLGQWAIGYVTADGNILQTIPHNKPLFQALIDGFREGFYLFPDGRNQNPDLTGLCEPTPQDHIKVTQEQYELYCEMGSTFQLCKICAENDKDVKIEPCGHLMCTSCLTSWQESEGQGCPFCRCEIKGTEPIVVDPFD
The experiment in a line: c-Cbl Biochemical Assay (TR-FRET). Conditions: hc-Cbl Biochemical Assay (TR-FRET); read-out: TR-FRET hcCbl IC50.

The term EC50 denotes the concentration at which the effect is half-maximal. What is called IC50 is the point on the concentration scale where inhibition reaches its midpoint. Turning to `COCCNCc1cc(C2CC2)c2oc(-c3cccc(-c4ccc(F)cc4-c4nncn4C)c3)nc2c1` [JH-1, N-((7-Cyclopropyl-2-(4′-fluoro-2′-(4-methyl-4H-1,2,4-triazol-3-yl)-[1,1′-biphenyl]-3-yl)benzo[d]oxazol-5-yl)methyl)-2-methoxyethan-1-amine], the EC50 in assay [1] was under 200 nM. For the same compound, the IC50 in assay [2] and in assay [3] was under 200 nM each time.

For `Cc1c(F)c(CNCC(C)(C)O)cc2nc(-c3cccc(-c4ccc(F)cc4-c4nncn4C)c3)oc12` [AHK-4, 1-[({6-fluoro-2-[4′-fluoro-2′-(4-methyl-1,2,4-triazol-3-yl)-[1,1′-biphenyl]-3-yl]-7-methyl-1,3-benzoxazol-5-yl}methyl)amino]-2-methylpropan-2-ol], in assay [1], the concentration for a half-maximal effect (EC50) is under 200 nM. Moreover, the IC50 in assay [2] and in assay [3] was under 200 nM throughout.

For the compound `Cn1cnnc1-c1cc(F)ccc1-c1cc(-c2nc3cc(CN[C@@H]4CCC[C@@H]4O)c(F)c(F)c3o2)nc(C2CC2)c1` [AFY-2, (1S,2R)-2-{[(2-{6-Cyclopropyl-4-[4-fluoro-2-(4-methyl-1,2,4-triazol-3-yl)phenyl]pyridin-2-yl}-6,7-difluoro-1,3-benzoxazol-5-yl)methyl]amino}cyclopentan-1-ol], the EC50 in assay [1] is under 200 nM. For the same compound, the IC50 in assay [2] and in assay [3] was under 200 nM throughout.

`Cn1cnnc1-c1cc(F)ccc1-c1cccc(-c2nc3cc(CNC[C@@H](O)C4CC4)cc(C(F)(F)F)c3o2)c1` (single isomer, unassigned) [DT-3]: the EC50 in assay [1] was under 200 nM. Also, the IC50 in assay [2] and in assay [3] was under 200 nM throughout.

On to `COC[C@H](C)NCc1cc(C)c2oc(-c3cccc(-c4ccc(F)cc4-c4nncn4C)c3)nc2c1` [AGS-4, ({2-[4′-Fluoro-2′-(4-methyl-1,2,4-triazol-3-yl)-[1,1′-biphenyl]-3-yl]-7-methyl-1,3-benzoxazol-5-yl}methyl)[(2S)-1-methoxypropan-2-yl]amine], for which the EC50 in assay [1] was under 200 nM. For the same compound, the concentration for half-maximal inhibition (IC50) in assay [2] and in assay [3] was under 200 nM each time.

For `C[C@H]1CCCN(Cc2ccc3oc(-c4cc(-c5ccc(C#N)cc5-c5nncn5C)cc(C5CC5)n4)nc3c2)C1` [AGG-2, 4-[2-Cyclopropyl-6-(5-{[(3S)-3-methylpiperidin-1-yl]methyl}-1,3-benzoxazol-2-yl)pyridin-4-yl]-3-(4-methyl-1,2,4-triazol-3-yl)benzonitrile], the 50% effective concentration (EC50) in assay [1] was in the range of 200 to 1000 nM. Also, the results for the IC50 in assay [2] and in assay [3] were under 200 nM and 200 to 1000 nM, respectively.

As for `COCCNCc1cc(C)c2oc(-c3cccc(-c4ccc(F)cc4-c4nncn4C)c3)nc2c1F` [JC-1, N-((4-Fluoro-2-(4′-fluoro-2′-(4-methyl-4H-1,2,4-triazol-3-yl)-[1,1′-biphenyl]-3-yl)-7-methylbenzo[d]oxazol-5-yl)methyl)-2-methoxyethan-1-amine], in assay [1], the EC50 lay within 1000 to 10000 nM. For the same compound, the values for the IC50 in assay [2] and in assay [3] were 200 to 1000 nM and 1000 to 10000 nM, respectively.

`COCCN(C)Cc1cc(OC)c2oc(-c3cccc(-c4ccc(F)cc4-c4nncn4C)c3)nc2c1` [GM-2, N-((2-(4′-Fluoro-2′-(4-methyl-4H-1,2,4-triazol-3-yl)-[1,1′-biphenyl]-3-yl)-7-methoxybenzo[d]oxazol-5-yl)methyl)-2-methoxy-N-methylethan-1-amine]: the EC50 in assay [1] was 10000 to 50000 nM. Moreover, the IC50 in assay [2] lay within 200 to 1000 nM; in assay [3], 1000 to 10000 nM.

As for `Cn1cnnc1-c1cc(C#N)ccc1-c1cccc(-c2nc3cc(CN[C@@H]4CCC[C@@H]4O)cc(C(F)(F)F)c3o2)c1` [CP-4, 3′-(5-((((1R,2S)-2-Hydroxycyclopentyl)amino)methyl)-7-(trifluoromethyl)benzo[d]oxazol-2-yl)-2-(4-methyl-4H-1,2,4-triazol-3-yl)-[1,1′-biphenyl]-4-carbonitrile], in assay [1], the EC50 is under 200 nM. Also, the IC50 in assay [2] and in assay [3] was under 200 nM throughout.

`CCNCc1cc2nc(-c3cc(-c4ccc(F)cc4-c4nncn4C)cc(C4CC4)n3)oc2c(F)c1F` [AGZ-2, [(2-{6-cyclopropyl-4-[4-fluoro-2-(4-methyl-1,2,4-triazol-3-yl)phenyl]pyridin-2-yl}-6,7-difluoro-1,3-benzoxazol-5-yl)methyl](ethyl)amine]: in assay [1], the EC50 lay within 200 to 1000 nM. Further, the results for the IC50 in assay [2] and in assay [3] were under 200 nM and 200 to 1000 nM, respectively.

Take `Cn1cnnc1-c1cc(F)ccc1-c1cc(-c2nc3cc(CO)ccc3o2)nc(C2CC2)c1` [ADQ-1, (2-{6-Cyclopropyl-4-[4-fluoro-2-(4-methyl-1,2,4-triazol-3-yl)phenyl]pyridin-2-yl}-1,3-benzoxazol-5-yl)MeOH]: in assay [1], the EC50 fell in the range of 10000 to 50000 nM. The concentration for half-maximal inhibition (IC50) in assay [2] and in assay [3] was 1000 to 10000 nM throughout.

Consider `Cn1cnnc1-c1cc(F)ccc1-c1cccc(-c2nc3cc(CNCC4(O)CCC4)ccc3o2)c1` [DQ-1, 1-((((2-(4′-Fluoro-2′-(4-methyl-4H-1,2,4-triazol-3-yl)-[1,1′-biphenyl]-3-yl)benzo[d]oxazol-5-yl)methyl)amino)methyl)cyclobutan-1-ol], for which the EC50 in assay [1] was under 200 nM. In addition, the IC50 in assay [2] and in assay [3] was under 200 nM throughout.

Regarding `Cn1cnnc1-c1cc(F)ccc1-c1cccc(-c2nc3cc(CNCC4(O)CC(F)(F)C4)cc(C(F)(F)F)c3o2)c1` [CQ-1, 3,3-Difluoro-1-((((2-(4′-fluoro-2′-(4-methyl-4H-1,2,4-triazol-3-yl)-[1,1′-biphenyl]-3-yl)-7-(trifluoromethyl)benzo[d]oxazol-5-yl)methyl)amino)methyl)cyclobutan-1-ol], the EC50 in assay [1] is under 200 nM. Besides, the IC50 in assay [2] and in assay [3] was under 200 nM each time.

Regarding `Cn1cnnc1-c1cc(F)ccc1-c1cccc(-c2nc3cc(N[C@@H]4CCC[C@@H]4O)cc(C(F)(F)F)c3o2)c1` [HV-3, (1S,2R)-2-((2-(4′-Fluoro-2′-(4-methyl-4H-1,2,4-triazol-3-yl)-[1,1′-biphenyl]-3-yl)-7-(trifluoromethyl)benzo[d]oxazol-5-yl)amino)cyclopentan-1-ol], the EC50 in assay [1] lay within 10000 to 50000 nM. Moreover, the IC50 in assay [2] was 200 to 1000 nM; in assay [3] it was 1000 to 10000 nM.

Turning to `CN(Cc1cc2nc(-c3cccc(-c4ccc(F)cc4-c4nncn4C)c3)oc2c(F)c1F)[C@@H]1CCC[C@@H]1O` [JJ-3, (1S,2R)-2-(((6,7-Difluoro-2-(4′-fluoro-2′-(4-methyl-4H-1,2,4-triazol-3-yl)-[1,1′-biphenyl]-3-yl)benzo[d]oxazol-5-yl)methyl)(methyl)amino)cyclopentan-1-ol], in assay [1], the EC50 lay in the range of 200 to 1000 nM. For the same compound, the concentration for half-maximal inhibition (IC50) in assay [2] and in assay [3] was under 200 nM each time.

With `Cn1cnnc1-c1cc(F)ccc1-c1cc(-c2nc3cc(C(C)(C)O)c(F)c(F)c3o2)nc(C2CC2)c1` [AHL-7, 2-(2-{6-cyclopropyl-4-[4-fluoro-2-(4-methyl-1,2,4-triazol-3-yl)phenyl]pyridin-2-yl}-6,7-difluoro-1,3-benzoxazol-5-yl)propan-2-ol], the EC50 in assay [1] lay within 1000 to 10000 nM. Besides, the IC50 in assay [2] was 200 to 1000 nM; in assay [3], 1000 to 10000 nM.

As to `COc1cc(CN[C@H]2C[C@@H](O)C2)cc2nc(-c3cccc(-c4ccc(F)cc4-c4nncn4C)c3)oc12` [GX-1, (1S,3S)-3-(((2-(4′-Fluoro-2′-(4-methyl-4H-1,2,4-triazol-3-yl)-[1,1′-biphenyl]-3-yl)-7-methoxybenzo[d]oxazol-5-yl)methyl)amino)cyclobutan-1-ol], in assay [1], the 50% effective concentration (EC50) was 1000 to 10000 nM. For the same compound, the IC50 in assay [2] was under 200 nM; in assay [3], 200 to 1000 nM.

Regarding `Cn1cnnc1-c1cc(F)ccc1-c1cccc(-c2nc3cc(CNCC4(O)CC4)cc(C(F)(F)F)c3o2)c1` [AH-2, 1-((((2-(4′-Fluoro-2′-(4-methyl-4H-1,2,4-triazol-3-yl)-[1,1′-biphenyl]-3-yl)-7-(trifluoromethyl)benzo[d]oxazol-5-yl)methyl)amino)methyl)cyclopropan-1-ol], the EC50 in assay [1] fell in the range of 200 to 1000 nM. Further, the half-maximal inhibitory concentration (IC50) is under 200 nM in assay [2] and 1000 to 10000 nM in assay [3].

As to `Cn1cnnc1-c1cc(F)ccc1-c1cccc(-c2nc3cc([C@@H](CO)N4CCC4)cc(C(F)(F)F)c3o2)c1` (single isomer, unassigned) [DO-7], the half-maximal effective concentration (EC50) in assay [1] is 1000 to 10000 nM. Further, the IC50 is under 200 nM in assay [2] and 200 to 1000 nM in assay [3].

In the case of `Cn1cnnc1-c1cc(F)ccc1-c1cc(-c2nc3cc(CNCC4CCC4)c(F)c(F)c3o2)nc(C2CC2)c1` [AGE-1, 1-Cyclobutyl-N-((2-(6-cyclopropyl-4-(4-fluoro-2-(4-methyl-4H-1,2,4-triazol-3-yl)phenyl)pyridin-2-yl)-6,7-difluorobenzo[d]oxazol-5-yl)methyl)methanamine], in assay [1], the EC50 is under 200 nM. Besides, the IC50 in assay [2] and in assay [3] was under 200 nM in each case.

Turning to `Cc1cc(C(C)(C)N)cc2nc(-c3cc(-c4ccc(F)cc4-c4nncn4C)cc(C4CC4)n3)oc12` [AGR-9, 2-(2-{6-Cyclopropyl-4-[4-fluoro-2-(4-methyl-1,2,4-triazol-3-yl)phenyl]pyridin-2-yl}-7-methyl-1,3-benzoxazol-5-yl)propan-2-amine], the EC50 in assay [1] was in the range of 1000 to 10000 nM. The IC50 in assay [2] is 200 to 1000 nM; in assay [3] it was 1000 to 10000 nM.
